Results taken from patent US20140350081A1, “INSECT G-COUPLED RECEPTORS USEFUL AS TARGETS FOR INSECTICIDES AND COMPOUNDS AND REAGENTS IDENTIFIED USING THE SAME” (priority 2011, published 2014).
Like-named read-outs stand apart in the source and are kept apart here.

How the values were obtained:
AaDOP2 [1] = target: T1, AaDOP2 (Aedes aegypti, UniProt H6D5H2); experiment: AaDOP2 agonist screen against the LOPAC1280 library; assay type: cell-based
[2] = test system: adult Reticulitermes flavipes; experiment: Termite immersion assay; assay type: in vivo; settings: 100 mM compound (Fipronil 500 μM), immersion, adult termite
From the text: A series of whole organism bioassays was developed to further evaluate the toxicity of chemistries to a range of agricultural, veterinary and public health pests and non-target insects (Tables 12 and 13). These assays are designed to rapidly explore the biological activity spectrum of chemistries as well as to facilitate initial investigations of the mode of action of insecticidal compounds. Briefly, assays were developed for the German cockroach (Blatella germanica, urban pest), termite (Reticulitermes flavipes; urban pest), lone star tick (Amblyomma americana; veterinary and public health pest), soybean aphid (Aphis glycines, agricultural pest) and honeybee (Apis mellifera; beneficial, non-target insect). The assays were designed to test the toxicity and speed of kill of multiple chemistries on contact. Each of these assays was performed as a single point dose experiment in triplicate using either topical application of compound to the ventral thorax (1 μl of a […] compound solution in 1:1 v:v DMSO:EtOH vehicle; 50-80 μg effective dose depending on compound) as is the case for our cockroach and honeybee assays, or 10 second immersion in a solution of the compound diluted in water or DMSO:[…] The assays were conducted in 24-well plate format with mortality assessment following incubation at 22° C. as described above. Commercial insecticides were incorporated in these assays to provide a positive control and permit initial comparative analyses. Lead chemistries identified in our in vivo screen have been evaluated in the cockroach and termite assays.

Ae. aegypti L3 larvae = experiment: whole plant or invertebrate; settings: Aedes aegypti
Isdop2 = Isdop2 (Ixodes scapularis, UniProt A0ACM8DGL0); experiment: cell-based; settings: for inhibition at 10 µM: read-out: % Inhibition (of response to dopamine), Isdop2 screen
AaDOP2 [3] = target: T1, AaDOP2; experiment: HTRF cAMP accumulation concentration response assay (Cisbio Dynamic 2); assay type: cell-based
AaDOP2 [4] = target: T1, AaDOP2; experiment: LOPAC1280 antagonist screen in HEK-CRELuc-Aadop2 cells; assay type: cell-based
[5] = test system: adult male Blatella germanica; experiment: Cockroach contact assay (topical application); assay type: in vivo; settings: 200 mM compound
From the text: (§1) A series of whole organism bioassays was developed to further evaluate the toxicity of chemistries to a range of agricultural, veterinary and public health pests and non-target insects (Tables 12 and 13). These assays are designed to rapidly explore the biological activity spectrum of chemistries as well as to facilitate initial investigations of the mode of action of insecticidal compounds. Briefly, assays were developed for the German cockroach (Blatella germanica, urban pest), termite (Reticulitermes flavipes; urban pest), lone star tick (Amblyomma americana; veterinary and public health pest), soybean aphid (Aphis glycines, agricultural pest) and honeybee (Apis mellifera; beneficial, non-target insect). The assays were designed to test the toxicity and speed of kill of multiple chemistries on contact. Each of these assays was performed as a single point dose experiment in triplicate using either topical application of compound to the ventral thorax ([…]; 50-80 μg effective dose depending on compound) as is the case for our cockroach and honeybee assays, or 10 second immersion in a solution of the compound diluted in water or DMSO:EtOH to a final concentration of 100 μM. The assays were conducted in 24-well plate format with mortality assessment following incubation at 22° C. as described above. Commercial insecticides were incorporated in these assays to provide a positive control and permit initial comparative analyses. Lead chemistries identified in our in vivo screen have been evaluated in the cockroach and termite assays.

[6] = test system: adult male Blatella germanica; experiment: Cockroach assay of Table 16 (title contact assay, text feeding assay); assay type: in vivo; settings: 200 mM compound
From the text: as §1

[7] = 10 μM compound, percent of response to 1 μM dihydrexidine
[8] = 24 h, read-out: Toxicity to Aedes aegypti larvae (mortality) 24 hours
[9] = 48 h, read-out: Toxicity to Aedes aegypti larvae (mortality) 48 hours
[10] = 72 h, read-out: Toxicity to Aedes aegypti larvae (mortality) 72 hours
[11] = AaDOP2 expressing cells in the presence of dopamine, No Inhibition = <10% inhibition at 3 μM test compound, read-out: IC50 ± S.E.M. (nM), HTRF cAMP assay
[12] = 10 μM compound, 300 nM dopamine, quadruplicate

Sequence of Isdop2 (A0ACM8DGL0 entry or part of it): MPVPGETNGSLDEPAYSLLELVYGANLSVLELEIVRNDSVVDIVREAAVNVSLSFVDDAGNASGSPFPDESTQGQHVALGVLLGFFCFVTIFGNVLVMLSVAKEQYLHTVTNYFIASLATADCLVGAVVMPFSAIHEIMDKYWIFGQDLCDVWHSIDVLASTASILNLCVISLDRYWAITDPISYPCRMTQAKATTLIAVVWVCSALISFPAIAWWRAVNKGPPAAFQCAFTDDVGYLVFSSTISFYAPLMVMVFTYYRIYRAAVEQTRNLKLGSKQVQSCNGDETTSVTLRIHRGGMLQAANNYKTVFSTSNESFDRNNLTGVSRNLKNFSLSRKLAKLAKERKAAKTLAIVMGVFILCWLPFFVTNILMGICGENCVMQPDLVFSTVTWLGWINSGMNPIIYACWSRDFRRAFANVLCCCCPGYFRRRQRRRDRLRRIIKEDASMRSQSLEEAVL
T1 sequence (H6D5H2 entry or part of it): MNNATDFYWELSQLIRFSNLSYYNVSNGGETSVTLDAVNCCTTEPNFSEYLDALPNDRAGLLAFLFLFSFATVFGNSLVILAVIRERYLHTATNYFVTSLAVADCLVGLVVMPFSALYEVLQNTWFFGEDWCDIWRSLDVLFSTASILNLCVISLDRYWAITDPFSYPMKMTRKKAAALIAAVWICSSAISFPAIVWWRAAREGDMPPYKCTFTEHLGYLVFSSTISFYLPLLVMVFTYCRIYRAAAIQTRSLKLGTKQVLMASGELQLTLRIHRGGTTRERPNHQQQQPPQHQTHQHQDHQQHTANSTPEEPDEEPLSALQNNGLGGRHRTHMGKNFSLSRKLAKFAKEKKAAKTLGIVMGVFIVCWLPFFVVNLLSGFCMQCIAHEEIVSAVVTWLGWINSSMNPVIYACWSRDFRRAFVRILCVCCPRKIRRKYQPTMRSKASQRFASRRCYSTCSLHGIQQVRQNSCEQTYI

## C=CCN1CCc2c(cc(O)c(O)c2Cl)C(c2ccccc2)C1 (racemic) [(±)-Chloro-APB]
AaDOP2 [1]; [7]
  % of DHX: 105%

## CNC[C@H](O)c1ccc(O)c(O)c1 (racemic) [(±)-Epinephrine]
AaDOP2 [1]
  % of DHX: 81%

## Nn1nnc2ccccc21 [1-Aminobenzotriazole]
AaDOP2 [1]; [7]
  % of DHX: 75%

## NC1CCc2cc(O)c(O)cc2C1 (stereo not drawn) [6,7-ADTN]
AaDOP2 [1]; [7]
  % of DHX: 131%

## CC1=C[C@@H]2c3cccc4[nH]cc(c34)C[C@H]2N(C)C1 [Agroclavine]
AaDOP2 [1]; [7]
  % of DHX: 93%

## C[C@H]1C[C@H]2[C@@H]3CCC4=CC(=O)C=C[C@]4(C)[C@@]3(F)[C@@H](O)C[C@]2(C)[C@@]1(O)C(=O)CO [Betamethasone]
AaDOP2 [1]; [7]
  % of DHX: 101%

## Nc1ncnc2c1ncn2[C@@H]1O[C@H](C(=O)NC2CC2)[C@@H](O)[C@H]1O [CPCA]
AaDOP2 [1]; [7]
  % of DHX: 34%

## CCCN(CCC)CCc1ccc(O)c(O)c1 [Dipropyldopamine]
AaDOP2 [1]; [7]
  % of DHX: 38%

## CCN(c1nc(N)c(C(=O)NC(=N)N)nc1Cl)C(C)C [EIPA]
AaDOP2 [1]; [7]
  % of DHX: 73%

## Oc1ccc(C2CNCCc3c2cc(O)c(O)c3Cl)cc1 (stereo not drawn) [Fenoldopam]
AaDOP2 [1]; [7]
  % of DHX: 31%

## N#Cc1nn(-c2c(Cl)cc(C(F)(F)F)cc2Cl)c(N)c1[S+]([O-])C(F)(F)F (stereo not drawn) [Fipronil]
[2]
  % Mortality 24 hrs: 90%
  % Mortality 48 hrs: 100%
  % Mortality 72 hrs: 100%
  % Mortality 120 hrs: 100%
  % Mortality 240 hrs: 100%

## C=C[C@@]1(C)CC(=O)[C@]2(O)[C@@]3(C)[C@@H](O)CCC(C)(C)[C@@H]3[C@H](O)[C@H](OC(C)=O)[C@@]2(C)O1 [Forskolin]
AaDOP2 [1]; [7]
  % of DHX: 34%

## CN(C)CCCN1c2ccccc2CCc2ccccc21 [Imipramine, 3-(10,11-dihydro-5H-dibenzo[b,f]azepin-5-yl)-N,N-dimethylpropan-1-amine]
Ae. aegypti L3 larvae; [8]
  mortality at 400 µM: 53%
Ae. aegypti L3 larvae; [9]
  mortality at 400 µM: 63%
Ae. aegypti L3 larvae; [10]
  mortality at 400 µM: 80%
Isdop2
  inhibition at 10 µM: 70%
AaDOP2 [3]; [11]
  IC50: 360 ± 30 nM
AaDOP2 [4]; [12]
  % of the SCH23390 effect: 96%
AaDOP2 [4]; LOPAC1280 screen hits
  % inhibition of DA activity (Aedes cell-based assay screen): 96%

## COC(=O)N(C(=O)N1CO[C@@]2(C(=O)OC)Cc3cc(Cl)ccc3C2=N1)c1ccc(OC(F)(F)F)cc1 [Indoxacarb]
[5]
  % Mortality 24 hrs: 50%
  % Mortality 48 hrs: 50%
  % Mortality 72 hrs: 70%
  % Mortality 120 hrs: 100%
  % Mortality 240 hrs: 100%
[6]
  % Mortality 24 hrs: 63%
  % Mortality 48 hrs: 63%
  % Mortality 72 hrs: 80%
  % Mortality 120 hrs: 100%

## CN1CCC(=C2c3ccccc3CC(=O)c3sccc32)CC1 [Ketotifen, 4-(1-methylpiperidin-4-ylidene)-4,9-dihydro-10H-benzo[4,5]cyclohepta[1,2-b]thiophen-10-one]
AaDOP2 [3]; [11]
  IC50: 750 ± 180 nM
AaDOP2 [4]; [12]
  % of the SCH23390 effect: 96%
AaDOP2 [4]; LOPAC1280 screen hits
  % inhibition of DA activity (Aedes cell-based assay screen): 96%

## CC1(C)C(=O)N(CCN2CCC(C(=O)c3ccc(F)cc3)CC2)c2ccccc21.Cl [LY310762, 1-[2-[4-(4-fluorobenzoyl)piperidin-1-yl]ethyl]-3,3-dimethylindol-2-one]
Ae. aegypti L3 larvae; 0.5 h, read-out: percent mortality 0.5 hr, 400 uM, L3 larvae, value for this scoring time
  mortality at 400 µM: 0%
Ae. aegypti L3 larvae; 1 h, read-out: percent mortality 1 hr, 400 uM, L3 larvae, per scoring time
  mortality at 400 µM: 0%
Ae. aegypti L3 larvae; 2 h, read-out: percent mortality 2 hr, 400 uM, L3 larvae, per scoring time
  mortality at 400 µM: 0%
Ae. aegypti L3 larvae; 3 h, read-out: percent mortality 3 hr, 400 uM, L3 larvae, per scoring time
  mortality at 400 µM: 0%
Ae. aegypti L3 larvae; 4 h, read-out: percent mortality 4 hr, 400 uM, L3 larvae, per scoring time
  mortality at 400 µM: 0%
Ae. aegypti L3 larvae; 24 h, read-out: Toxicity to Aedes aegypti larvae (mortality) 24 hours, 400 μM, L3 larvae, three independent experiments
  mortality at 400 µM: 0%
Ae. aegypti L3 larvae; 24 h, read-out: percent mortality 24 hr, 400 uM, L3 larvae, per scoring time
  mortality at 400 µM: 0%
Ae. aegypti L3 larvae; 48 h, read-out: Toxicity to Aedes aegypti larvae (mortality) 48 hours, 400 μM, L3 larvae, three independent experiments
  mortality at 400 µM: 3%
Ae. aegypti L3 larvae; 48 h, read-out: percent mortality 48 hr, 400 uM, L3 larvae, per scoring time
  mortality at 400 µM: 10%
Ae. aegypti L3 larvae; 72 h, read-out: Cumulative % Mortality (72 hrs), 400 uM, L3 larvae
  mortality at 400 µM: 10%
Ae. aegypti L3 larvae; 72 h, read-out: Toxicity to Aedes aegypti larvae (mortality) 72 hours, 400 μM, L3 larvae, three independent experiments
  mortality at 400 µM: 3%
Ae. aegypti L3 larvae; 72 h, read-out: percent mortality 72 hr, 400 uM, L3 larvae, per scoring time
  mortality at 400 µM: 0%
Ae. aegypti L3 larvae; […], read-out: percent mortality […], 400 uM, L3 larvae, per scoring time
  mortality at 400 µM: 0%
Isdop2
  inhibition at 10 µM: 72%
AaDOP2 [4]
  % of the SCH23390 effect: 81%
AaDOP2 [4]; LOPAC1280 screen hits
  % inhibition of DA activity (Aedes cell-based assay screen): 81%

## CC[C@@H](CO)NC(=O)[C@@H]1C=C2c3cccc4[nH]cc(c34)C[C@H]2N(C)C1 [Methylergonovine]
AaDOP2 [1]; [7]
  % of DHX: 47%

## CCNC(=O)[C@H]1O[C@@H](n2cnc3c(NCc4ccccc4)ncnc32)[C@@H](O)C1O (stereo partly drawn) [N6-Benzyl-NECA]
AaDOP2 [1]; [7]
  % of DHX: 36%

## CNCCc1ccc(O)c(O)c1 [N-Methyldopamine]
AaDOP2 [1]; [7]
  % of DHX: 107%

## CCCCCCCC/C=C\CCCCCCCC(=O)NCCc1ccc(O)c(O)c1 [N-Oleoyldopamine]
AaDOP2 [1]; [7]
  % of DHX: 38%

## CNCCC=C1c2ccccc2CCc2ccccc21 [Nortriptyline, 3-(10,11-dihydro-5H-dibenzo[a,d]cyclohepten-5-ylidene)-N-methyl-1-propanamine]
Ae. aegypti L3 larvae; [8]
  mortality at 400 µM: 43%
Ae. aegypti L3 larvae; [9]
  mortality at 400 µM: 63%
Ae. aegypti L3 larvae; [10]
  mortality at 400 µM: 73%
Isdop2
  inhibition at 10 µM: 79%
AaDOP2 [3]; IC50 ± S.E.M. (nM), HTRF cAMP assay
  IC50: 140 ± 50 nM
AaDOP2 [4]; [12]
  % of the SCH23390 effect: 96%
AaDOP2 [4]; LOPAC1280 screen hits
  % inhibition of DA activity (Aedes cell-based assay screen): 96%

## OCCN1CCN(CCCN2c3ccccc3Sc3ccc(Cl)cc32)CC1 [Perphenazine, 2-[4-[3-(2-chloro-10H-phenothiazin-10-yl)propyl]piperazin-1-yl]ethanol]
Isdop2
  inhibition at 10 µM: 76%
AaDOP2 [3]; Avg IC50 (μM), in vitro Concentration Response Curve assay, n = 2, relative to control antagonist Amitriptyline
  IC50: 101 nM
AaDOP2 [4]; [12]
  % of the SCH23390 effect: 95%
AaDOP2 [4]; LOPAC1280 screen hits
  % inhibition of DA activity (Aedes cell-based assay screen): 95%

## CNCCCC1c2ccccc2C=Cc2ccccc21 [Protriptyline, 3-(5H-dibenzo[a,d][7]annulen-5-yl)-N-methylpropan-1-amine]
Ae. aegypti L3 larvae; [8]
  mortality at 400 µM: 37%
Ae. aegypti L3 larvae; [9]
  mortality at 400 µM: 43%
Ae. aegypti L3 larvae; [10]
  mortality at 400 µM: 53%
Isdop2
  inhibition at 10 µM: 75%
AaDOP2 [3]; read-out: IC50 ± S.E.M. (nM), HTRF cAMP assay
  IC50: 600 ± 250 nM
AaDOP2 [4]
  % inhibition of DA activity (Aedes cell-based assay screen): 82%
  % of the SCH23390 effect: 82%

## C=CCN1CCc2cccc3c2[C@H]1Cc1ccc(O)c(O)c1-3 [R(−)-N-Allyl-NPA]
AaDOP2 [1]; [7]
  % of DHX: 56%

## CCCN1CCc2cccc3c2[C@H]1Cc1ccc(O)c(O)c1-3 [R(−)-Propyl-NPA]
AaDOP2 [1]; [7]
  % of DHX: 68%

## Br.Cc1cccc(C2CN(C)CCc3c2cc(O)c(O)c3Cl)c1 (stereo not drawn) [SKF 83959]
AaDOP2 [1]; [7]
  % of DHX: 30%
Isdop2
  % Inhibition (of response to dopamine), Isdop2 screen: 87%

## Br.Oc1ccc(C2CNCc3sccc32)cc1O (stereo not drawn) [SKF 89626]
AaDOP2 [1]; [7]
  % of DHX: 101%

## CN(C)CCCN1c2ccccc2Sc2ccc(C(F)(F)F)cc21 [Triflupromazine, N,N-dimethyl-3-[2-(trifluoromethyl)-10H-phenothiazin-10-yl]propan-1-amine]
Isdop2
  inhibition at 10 µM: 83%
AaDOP2 [4]
  % of the SCH23390 effect: 88%
AaDOP2 [4]; LOPAC1280 screen hits
  % inhibition of DA activity (Aedes cell-based assay screen): 88%
